Like-named read-outs stand apart in the source and are kept apart here.
Legend:
[1] = Particle size by dynamic light scattering; assay type: physicochemical
[2] = Degradation in water with and without SLS; assay type: physicochemical; conditions: after 24 h at 25° C.
[3] = Solubility of compound of Formula (I) in water, buffers and surfactant solutions; assay type: physicochemical
Protocol: In water, compound of Formula (I) has a solubility of about 6 μg/mL. At pH 6, the solubility is about 5 μg/mL.

[4] = Flow properties (bulk density, tapped density, Carr's index); assay type: physicochemical; conditions: API alone
Description: Magnesium stearate was included to prevent sticking of the blend to the encapsulator contact parts (Torpac).

[5] = Permeability of compound of Formula (I)
Moisture sorption = assay type: physicochemical; conditions: at above 90% RH

Structure (SMILES): Cn1c(=O)c2c(ncn2CC(=O)Nc2ccc(-c3ccccc3)nn2)n(C)c1=O [compound of Formula (I)]
- d10 [1]: 2-5 μm
- d50 [1]: 10-30 μm
- d90 [1]: 35-55 μm
- degradation ([2]; In water): about 40%
- degradation ([2]; water with 2% w/v SLS): no (or minimal) degradation
- solubility ([3]; 2% w/v SLS in water, pH 8.82, aqueous with cosolvent or surfactant or cyclodextrin, thermodynamic from solid, 2% w/v SLS is water, pH after equilibration 8.82, read-out: Solubility Sample-1): 458 µg/mL
- solubility ([3]; 2% w/v SLS in water, pH 8.82, aqueous with cosolvent or surfactant or cyclodextrin, thermodynamic from solid, 2% w/v SLS is water, pH after equilibration 8.82, read-out: Solubility Sample-2): 429 µg/mL
- solubility ([3]; 2% w/v Tween 80 in pH 3.0 buffer, pH 3, aqueous with cosolvent or surfactant or cyclodextrin, thermodynamic from solid, 2% w/v Tween 80 in pH 3.0 buffer, pH after equilibration 3.16, read-out: Solubility Average (n = 2)): 25.2 µg/mL
- solubility ([3]; 2% w/v Tween 80 in pH 3.0 buffer, pH 3, aqueous with cosolvent or surfactant or cyclodextrin, thermodynamic from solid, 2% w/v Tween 80 in pH 3.0 buffer, pH after equilibration 3.16, read-out: Solubility Sample-1): 23.8 µg/mL
- solubility ([3]; 2% w/v Tween 80 in pH 3.0 buffer, pH 3, aqueous with cosolvent or surfactant or cyclodextrin, thermodynamic from solid, 2% w/v Tween 80 in pH 3.0 buffer, pH after equilibration 3.16, read-out: Solubility Sample-2): 26.7 µg/mL
- solubility ([3]; 2% w/v Tween 80 in water, pH 7.72, aqueous with cosolvent or surfactant or cyclodextrin, thermodynamic from solid, 2% w/v Tween 80 in water, pH after equilibration 7.72, read-out: Solubility Average (n = 2)): 22.8 µg/mL
- solubility ([3]; 2% w/v Tween 80 in water, pH 7.72, aqueous with cosolvent or surfactant or cyclodextrin, thermodynamic from solid, 2% w/v Tween 80 in water, pH after equilibration 7.72, read-out: Solubility Sample-1): 22.4 µg/mL
- solubility ([3]; 2% w/v Tween 80 in water, pH 7.72, aqueous with cosolvent or surfactant or cyclodextrin, thermodynamic from solid, 2% w/v Tween 80 in water, pH after equilibration 7.72, read-out: Solubility Sample-2): 23.2 µg/mL
- solubility ([3]; 5% w/v PVP K 30 in pH 1.2 buffer, pH 1.2, aqueous with cosolvent or surfactant or cyclodextrin, thermodynamic from solid, 5% w/v PVP K 30 in pH 1.2 buffer, pH after equilibration 1.25, read-out: Solubility Average (n = 2)): 35 µg/mL
- solubility ([3]; 5% w/v PVP K 30 in pH 1.2 buffer, pH 1.2, aqueous with cosolvent or surfactant or cyclodextrin, thermodynamic from solid, 5% w/v PVP K 30 in pH 1.2 buffer, pH after equilibration 1.25, read-out: Solubility Sample-1): 34.8 µg/mL
- solubility ([3]; 5% w/v PVP K 30 in pH 1.2 buffer, pH 1.2, aqueous with cosolvent or surfactant or cyclodextrin, thermodynamic from solid, 5% w/v PVP K 30 in pH 1.2 buffer, pH after equilibration 1.25, read-out: Solubility Sample-2): 35.2 µg/mL
- solubility ([3]; 5% w/v PVP K 30 in pH 3.0 buffer, pH 3, aqueous with cosolvent or surfactant or cyclodextrin, thermodynamic from solid, 5% w/v PVP K 30 in pH 3.0 buffer, pH after equilibration 3.12, read-out: Solubility Average (n = 2)): 17.9 µg/mL
- solubility ([3]; 5% w/v PVP K 30 in pH 3.0 buffer, pH 3, aqueous with cosolvent or surfactant or cyclodextrin, thermodynamic from solid, 5% w/v PVP K 30 in pH 3.0 buffer, pH after equilibration 3.12, read-out: Solubility Sample-1): 19.9 µg/mL
- solubility ([3]; 5% w/v PVP K 30 in pH 3.0 buffer, pH 3, aqueous with cosolvent or surfactant or cyclodextrin, thermodynamic from solid, 5% w/v PVP K 30 in pH 3.0 buffer, pH after equilibration 3.12, read-out: Solubility Sample-2): 15.8 µg/mL
- solubility ([3]; 5% w/v PVP K 30 in water, pH 3.96, aqueous with cosolvent or surfactant or cyclodextrin, thermodynamic from solid, 5% w/v PVP K 30 in water, pH after equilibration 3.96, read-out: Solubility Average (n = 2)): 15.8 µg/mL
- solubility ([3]; 5% w/v PVP K 30 in water, pH 3.96, aqueous with cosolvent or surfactant or cyclodextrin, thermodynamic from solid, 5% w/v PVP K 30 in water, pH after equilibration 3.96, read-out: Solubility Sample-1): 18.1 µg/mL
- solubility ([3]; 5% w/v PVP K 30 in water, pH 3.96, aqueous with cosolvent or surfactant or cyclodextrin, thermodynamic from solid, 5% w/v PVP K 30 in water, pH after equilibration 3.96, read-out: Solubility Sample-2): 13.5 µg/mL
- solubility ([3]; 20% w/v SLS in pH 1.2 buffer, pH 1.2, aqueous with cosolvent or surfactant or cyclodextrin, thermodynamic from solid, 20% w/v SLSixpB 1.2 buffer, pH after equilibration 1.33, read-out: Solubility Average (n = 2)): 2020 µg/mL
- solubility ([3]; 20% w/v SLS in pH 1.2 buffer, pH 1.2, aqueous with cosolvent or surfactant or cyclodextrin, thermodynamic from solid, 20% w/v SLSixpB 1.2 buffer, pH after equilibration 1.33, read-out: Solubility Sample-1): 1860 µg/mL
- solubility ([3]; 20% w/v SLS in pH 1.2 buffer, pH 1.2, aqueous with cosolvent or surfactant or cyclodextrin, thermodynamic from solid, 20% w/v SLSixpB 1.2 buffer, pH after equilibration 1.33, read-out: Solubility Sample-2): 2170 µg/mL
- solubility ([3]; 28% w/v SLS in pH 3.0 buffer, pH 3, aqueous with cosolvent or surfactant or cyclodextrin, thermodynamic from solid, 28% w/v SL.S in pH 3.0 baffer, pH after equilibration 2.95, read-out: Solubility Average (n = 2)): 404 µg/mL
- solubility ([3]; 28% w/v SLS in pH 3.0 buffer, pH 3, aqueous with cosolvent or surfactant or cyclodextrin, thermodynamic from solid, 28% w/v SL.S in pH 3.0 baffer, pH after equilibration 2.95, read-out: Solubility Sample-1): 394 µg/mL
- solubility ([3]; 28% w/v SLS in pH 3.0 buffer, pH 3, aqueous with cosolvent or surfactant or cyclodextrin, thermodynamic from solid, 28% w/v SL.S in pH 3.0 baffer, pH after equilibration 2.95, read-out: Solubility Sample-2): 415 µg/mL
- solubility ([3]; 29% w/v Tween 80 in pH 1.2 buffer, pH 1.2, aqueous with cosolvent or surfactant or cyclodextrin, thermodynamic from solid, 29% w/v Tween 80 in pH 1.2 buffer, pH after equilibration 1.25, read-out: Solubility Average (n = 2)): 37.2 µg/mL
- solubility ([3]; 29% w/v Tween 80 in pH 1.2 buffer, pH 1.2, aqueous with cosolvent or surfactant or cyclodextrin, thermodynamic from solid, 29% w/v Tween 80 in pH 1.2 buffer, pH after equilibration 1.25, read-out: Solubility Sample-1): 37.3 µg/mL
- solubility ([3]; 29% w/v Tween 80 in pH 1.2 buffer, pH 1.2, aqueous with cosolvent or surfactant or cyclodextrin, thermodynamic from solid, 29% w/v Tween 80 in pH 1.2 buffer, pH after equilibration 1.25, read-out: Solubility Sample-2): 37.1 µg/mL
- solubility ([3]; 50% w/v Poloxamer 188 in pH 1.2 buffer, pH 1.2, aqueous with cosolvent or surfactant or cyclodextrin, thermodynamic from solid, 50% w/v Poloxamer 188 in pH 1.2 buffer, pH after equilibration 1.25, read-out: Solubility Average (n = 2)): 35.5 µg/mL
- solubility ([3]; 50% w/v Poloxamer 188 in pH 1.2 buffer, pH 1.2, aqueous with cosolvent or surfactant or cyclodextrin, thermodynamic from solid, 50% w/v Poloxamer 188 in pH 1.2 buffer, pH after equilibration 1.25, read-out: Solubility Sample-1): 35.6 µg/mL
- solubility ([3]; 50% w/v Poloxamer 188 in pH 1.2 buffer, pH 1.2, aqueous with cosolvent or surfactant or cyclodextrin, thermodynamic from solid, 50% w/v Poloxamer 188 in pH 1.2 buffer, pH after equilibration 1.25, read-out: Solubility Sample-2): 35.4 µg/mL
- solubility ([3]; 50% w/v Poloxamer 188 in water, pH 7.23, aqueous with cosolvent or surfactant or cyclodextrin, thermodynamic from solid, 50% w/v Poloxamer 188 in water, pH after equilibration 7.23, read-out: Solubility Average (n = 2)): 9.63 µg/mL
- solubility ([3]; 50% w/v Poloxamer 188 in water, pH 7.23, aqueous with cosolvent or surfactant or cyclodextrin, thermodynamic from solid, 50% w/v Poloxamer 188 in water, pH after equilibration 7.23, read-out: Solubility Sample-1): 10.9 µg/mL
- solubility ([3]; 50% w/v Poloxamer 188 in water, pH 7.23, aqueous with cosolvent or surfactant or cyclodextrin, thermodynamic from solid, 50% w/v Poloxamer 188 in water, pH after equilibration 7.23, read-out: Solubility Sample-2): 8.39 µg/mL
- solubility ([3]; 59% w/v Poloxamer 188 in pH 3.0 buffer, pH 3, aqueous with cosolvent or surfactant or cyclodextrin, thermodynamic from solid, 59% w/v Poloxamer 188 in pH 3.0 buffer, pH after equilibration 3.30, read-out: Solubility Average (n = 2)): 18.3 µg/mL
- solubility ([3]; 59% w/v Poloxamer 188 in pH 3.0 buffer, pH 3, aqueous with cosolvent or surfactant or cyclodextrin, thermodynamic from solid, 59% w/v Poloxamer 188 in pH 3.0 buffer, pH after equilibration 3.30, read-out: Solubility Sample-1): 18.7 µg/mL
- solubility ([3]; 59% w/v Poloxamer 188 in pH 3.0 buffer, pH 3, aqueous with cosolvent or surfactant or cyclodextrin, thermodynamic from solid, 59% w/v Poloxamer 188 in pH 3.0 buffer, pH after equilibration 3.30, read-out: Solubility Sample-2): 17.9 µg/mL
- solubility ([3]; citrate buffer, pH 3, aqueous buffer, thermodynamic from solid, pH 3.0 (Citrate buffer), read-out: Solubility Average (n = 2)): 7.77 µg/mL
- solubility ([3]; citrate buffer, pH 3, aqueous buffer, thermodynamic from solid, pH 3.0 (Citrate buffer), read-out: Solubility Sample-1): 7.76 µg/mL
- solubility ([3]; citrate buffer, pH 3, aqueous buffer, thermodynamic from solid, pH 3.0 (Citrate buffer), read-out: Solubility Sample-2): 7.78 µg/mL
- solubility ([3]; hydrochloric acid buffer, pH 1.2, simulated gastric fluid, thermodynamic from solid, pH 1.2 (Hydrochloric acid buffer), read-out: Solubility Average (n = 2)): 20.8 µg/mL
- solubility ([3]; hydrochloric acid buffer, pH 1.2, simulated gastric fluid, thermodynamic from solid, pH 1.2 (Hydrochloric acid buffer), read-out: Solubility Sample-1): 20.8 µg/mL
- solubility ([3]; hydrochloric acid buffer, pH 1.2, simulated gastric fluid, thermodynamic from solid, pH 1.2 (Hydrochloric acid buffer), read-out: Solubility Sample-2): 20.9 µg/mL
- solubility ([3]; pH 2, simulated gastric fluid, At pH 2, read-out: solubility): ~8.4 µg/mL
- solubility ([3]; pH 4, aqueous buffer, At pH 4, read-out: solubility): ~6.4 µg/mL
- solubility ([3]; pH 6, aqueous buffer, At pH 6, read-out: solubility): ~5 µg/mL
- solubility ([3]; water, In water, read-out: solubility): ~6 µg/mL
- solubility ([3]; water, in water, read-out: solubility): < 6 µg/mL
- solubility ([3]; water, pH 7.95, water, thermodynamic from solid, Water, pH after equilibration 7.95, read-out: Solubility Average (n = 2)): 5.99 µg/mL
- solubility ([3]; water, pH 7.95, water, thermodynamic from solid, Water, pH after equilibration 7.95, read-out: Solubility Sample-1): 6 µg/mL
- solubility ([3]; water, pH 7.95, water, thermodynamic from solid, Water, pH after equilibration 7.95, read-out: Solubility Sample-2): 5.97 µg/mL
- flow properties of the API [4]: poor flow properties
- permeability [5]: low
- water uptake (Moisture sorption): about 1%
